Here are results for 18 compounds from patent publication US11667643B2, “RIP1K inhibitors” (priority 2020, dated 2023).

Molecules are shown by their SMILES.

The subject of one assay is L929 cells. The experiment in a line: L929 cell necroptosis assay (TNFa + zVAD, CellTiter-Glo recovery), functional murine RIP1 assay. Type of assay: cell-based. To be noted: Mus musculus, L929, 18 h, read-out: L929-CTG-recovery, L929, TNFa + zVAD (IC50), L929 cells, zVAD-fmk, TNFa 2 ng/mL, 18 hours, CellTiter-Glo. On the procedure:
(§1) In this example, U937 and L929 cells were exposed to compounds of the present disclosure and a cell necroptosis assay was conducted to evaluate compound activity in functional human RIP1 and murine RIP1 assays.
(§2) U937 and L929 cells were obtained from the American Type Culture Collection (Manassa, Va., USA). Both cells were maintained in logarithmic growth phase in complete RPMI 1640 media (Sigma, ST Louis, Mo., USA) supplemented with 10% fetal bovine serum (Sigma, ST Louis, Mo., USA) at 37° C. with 5% CO2. For necroptosis assay, L929 cells were plated for 18 h in 100 μL/well medium at 10K cells/well in Costar 96-well black clear-bottom plates (Fisher Scientific, Hampton, N.H., USA); U937 cells were plated on the day of the assay in 50 μL/well medium containing 60 uM zVAD-fmk (Lonza, Basel, Switzerland) at 50K cells/well. Medium from L929 cells were removed from the 96-well plates and replaced with 50 μL/well new medium containing 40 uM zVAD-fmk. Each compound of the present disclosure evaluated in this example was serially diluted in DMSO from 2.5 mM in 4-fold dilutions, and then diluted 1:125 in complete medium. 50 μL/well 2× of the compound was then added to the cells in the plates. The cells were pre-incubated with the compound for 1 hour at 37° C. with 5% CO2 and before addition of 10 μL/well 11×TNFa (Peprotech, Rocky Hill, N.J., USA) to give a final concentration of 2 ng/mL for TNFa. The relative amount of necroptosis cells was determined by luminescent using a Wallac Victor2 Luminometer (PerkinElmer, Waltham, Mass., USA) and a CellTiter-Glo® Luminescent Cell Viability Reagent Assay (Promega, Madison, Wis., USA) added per manufacturer instructions after 18 hours of TNFa stimulation at 37° C. with 5% CO2. This example establishes that embodiments of the compounds described herein have unexpectedly potent activity against human RIP1 and murine RIP1, which allows their assessment in in vivo mouse models of disease.
(ATP-based viability assays read luminescence as a measure of living cells.)

For another assay, the target named is RIPK1 (Homo sapiens (Human), UniProt Q13546). Briefly: biochemical. As to conditions: RIPK1 enzyme 31 ng/well, 30° C. for 30 minutes, luminescence; read-out: RIPK1 ADP-Glo Kinase (IC50). Type of assay: biochemical. On the procedure: In this example, compounds of the disclosure were evaluated using a biochemical assay using the ADP-Glo™ technology.
ADP-Glo™ (Promega, Madison, Wis., USA) reagents were thawed at ambient temperature. Kinase Detection Reagent was prepared by mixing kinase detection buffer with the lyophilized kinase detection substrate.
A […] stock volume of 5× Reaction Kinase Buffer was made by mixing 1000 μl of 1M MgCl2, 500 μl of 1M Tris-HCL pH7.4, 0.5 mg/ml (25 mg) of BSA, and 3475 μl of distilled H2O. A 3 ml 2× working stock volume of Reaction Kinase Buffer was made containing a final concentration of 100 μM DTT and 4 mM MnCl2.
Components of RIPK1 enzyme (Rigel Pharmaceuticals, South San Francisco, Calif., USA) were thawed on ice. Diluted RIPK1 was prepared in 1× Kinase Reaction Buffer (diluted from 2× buffer) to 31 ng/well.
1.0 ul of diluted compound was added to a 384 well plate in duplicate. […] The final reaction volume was 5.0 μl. The plate was quickly centrifuged and the reaction was incubated at 30° C. for 30 minutes. Adding 5 μl of ADP-Glo™ terminated the reaction. The plate was quickly centrifuged and the reaction was incubated at room temperature for 40 minutes. Kinase Detection Reagent was then added and incubated at room temperature for 30 minutes. The relative light unit (RLU) of kinase reaction was determined by luminescent (Luminescence 0.1 s) using a Wallac Victor2 Luminometer (PerkinElmer, Waltham, Mass., USA).
Background: In ADP-Glo the light output rises with the ADP produced.

In the next assay the test system is U937 cells. Briefly: U937 cell necroptosis assay (TNFa + zVAD, CellTiter-Glo recovery), functional human RIP1 assay. Format: cell-based. As to conditions: Homo sapiens, U-937, 18 h, read-out: U937 Zvad TNF CTG Recovery, U937, TNFa + zVAD (IC50), U937 cells, zVAD-fmk, TNFa 2 ng/mL, 18 hours, CellTiter-Glo. On the procedure:
as §1, §2

Chain of RIPK1 (Q13546 whole entry, species assumed): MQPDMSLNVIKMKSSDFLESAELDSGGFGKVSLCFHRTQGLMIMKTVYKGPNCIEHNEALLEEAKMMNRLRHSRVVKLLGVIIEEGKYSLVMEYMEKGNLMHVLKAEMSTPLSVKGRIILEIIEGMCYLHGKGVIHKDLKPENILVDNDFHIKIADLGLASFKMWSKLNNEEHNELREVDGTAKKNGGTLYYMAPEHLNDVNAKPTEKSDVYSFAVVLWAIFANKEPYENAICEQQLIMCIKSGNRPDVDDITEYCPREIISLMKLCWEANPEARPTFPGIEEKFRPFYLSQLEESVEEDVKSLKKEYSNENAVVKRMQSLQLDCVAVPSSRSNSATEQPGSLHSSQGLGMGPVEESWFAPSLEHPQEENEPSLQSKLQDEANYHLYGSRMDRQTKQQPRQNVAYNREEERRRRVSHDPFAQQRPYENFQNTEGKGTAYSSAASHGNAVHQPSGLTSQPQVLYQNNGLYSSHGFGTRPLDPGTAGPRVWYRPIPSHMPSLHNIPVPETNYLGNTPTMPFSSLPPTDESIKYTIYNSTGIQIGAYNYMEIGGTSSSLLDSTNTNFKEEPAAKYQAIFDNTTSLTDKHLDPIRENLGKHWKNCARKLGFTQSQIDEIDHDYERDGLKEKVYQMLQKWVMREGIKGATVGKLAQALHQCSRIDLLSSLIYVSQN

As for `O=C(N[C@H]1COc2ccccc2-n2c1noc2=O)c1cc(O)n(Cc2ccccc2)n1` [Compound I-75, 1-Benzyl-5-hydroxy-N-((4R)-1-oxo-4,5-dihydro-1H-benzo[b][1,2,4]oxadiazolo[4,3-d][1,4]oxazepin-4-yl)-1H-pyrazole-3-carboxamide], the IC50 in the assay on L929 cells is 10000 µM; on RIPK1 it was 10.6 µM; in the assay on U937 cells it was 10000 µM.
Turning to `O=C(N[C@H]1CSc2ccccc2-n2nnnc21)c1n[nH]c(Cc2ccccc2)n1` [Compound I-24, (R)-5-Benzyl-N-(4,5-dihydrobenzo[b]tetrazolo[1,5-d][1,4]thiazepin-4-yl)-1H-1,2,4-triazole-3-carboxamide], the IC50 in the assay with L929 cells turned out to be 2.14 µM; at RIPK1, 0.0272 µM; with U937 cells it was 0.0144 µM.
On the same counts, the results for `O=C(N[C@H]1COc2ccccc2-n2c1noc2=O)c1ncn(Cc2c(Cl)cccc2Cl)n1` [Compound I-42, 1-(2,6-Dichlorobenzyl)-N-((4R)-1-oxo-4,5-dihydro-1H-benzo[&][1,2,4]oxadiazolo[4,3-d][1,4]oxazepin-4-yl)-1H-1,2,4-triazole-3-carboxamide] are 10000 µM, 0.0263 µM and 0.041 µM.
In the same order, the values of `O=C(N[C@H]1CSc2ccccc2-n2c1noc2=O)c1n[nH]c(Cc2ccc(F)cc2)n1` [Compound I-31, 5-(4-Fluorobenzyl)-N-((4R)-1-oxo-4,5-dihydro-1H-benzo[6][1,2,4]oxadiazolo[4,3-d][1,4]thiazepin-4-yl)-1H-1,2,4-triazole-3-carboxamide] are 5010 µM, 0.0158 µM and 0.014 µM.
On the same counts, the results for `O=C(NC1COc2ccccc2-n2cccc21)c1n[nH]c(Cc2ccc(F)cc2)n1` (racemic) [Compound I-37, (±)-N-(6,7-Dihydrobenzo[b]pyrrolo[1,2-d][1,4]oxazepin-7-yl)-5-(4-fluorobenzyl)-1H-1,2,4-triazole-3-carboxamide] are 10000 µM, 1.14 µM and 4.07 µM.
Regarding `O=C(NC1CCc2ccc(N3CCC4(CCOCC4)CC3)cc2-n2ccnc21)c1ccn(Cc2ccccc2)n1` (racemic) [Compound I-77, (±)-N-(9-(3-Oxa-9-azaspiro[5.5]undecan-9-yl)-5,6-dihydro-4H-benzo[f]imidazo[1,2-a]azepin-4-yl)-1-benzyl-1H-pyrazole-3-carboxamide], the values for the IC50 with L929 cells, on RIPK1 and in the assay on U937 cells were 4.08 µM, 0.111 µM and 0.0096 µM, respectively.
On the same counts, the results for `O=C(N[C@H]1COc2ccccc2-n2c1noc2=O)c1n[nH]c(Cc2ccccc2)n1` [Compound I-41, 5-Benzyl-N-((4R)-1-oxo-4,5-dihydro-1H-benzo[6][1,2,4]oxadiazolo[4,3-d][1,4]oxazepin-4-yl)-1H-1,2,4-triazole-3-carboxamide] are 10000 µM, 0.058 µM and 0.0481 µM.
In the same order, the values of `O=C1c2nn(Cc3ccccc3)c(Cl)c2CN1[C@H]1COc2ccccc2-n2nnnc21` [Compound I-79] are 10000 µM, 0.652 µM and 16.1 µM.
On the same counts, the results for `O=C(N[C@H]1COc2ncccc2-n2c1noc2=O)c1cc(Cc2ccccc2)on1` [Compound I-46, 5-Benzyl-N-((4R)-1-oxo-4,5-dihydro-1H-[1,2,4]oxadiazolo[4,3-d]pyrido[2,3-b][1,4]oxazepin-4-yl)isoxazole-3-carboxamide] are 10000 µM, 4.41 µM and 39.4 µM.
Consider `O=C(N[C@H]1CSc2ccccc2-n2c1noc2=O)c1ncn(Cc2ccc(F)cc2)n1` [Compound I-32, 1-(4-Fluorobenzyl)-N-((4R)-1-oxo-4,5-dihydro-1H-benzo[b][1,2,4]oxadiazolo[4,3-d][1,4]thiazepin-4-yl)-1H-1,2,4-triazole-3-carboxamide], for which the IC50 in the assay with L929 cells worked out at 0.674 µM; on RIPK1, 0.0133 µM; in the assay on U937 cells, 0.0016 µM.
On the same counts, the results for `O=C(NC1CCc2ccccc2-n2ccnc21)c1ncn(Cc2ccccc2F)n1` (racemic) [Compound I-14, (±)-N-(5,6-Dihydro-4H-benzo[f]imidazo[1,2-a]azepin-4-yl)-1-(2-fluorobenzyl)-1H-1,2,4-triazole-3-carboxamide] are 2.34 µM, 0.0166 µM and 0.0066 µM.
On the same counts, the results for `O=C(N[C@H]1CSc2ccccc2-n2nnnc21)c1cc(Cc2ccccc2)on1` [Compound I-23, (R)-5-Benzyl-N-(4,5-dihydrobenzo[b]tetrazolo[1,5-d][1,4]thiazepin-4-yl)isoxazole-3-carboxamide] are 10000 µM, 0.0429 µM and 0.101 µM.
In the same order, the values of `O=C(N[C@H]1COc2ccccc2-n2nnnc21)c1ncn(Cc2c(Cl)cccc2Cl)n1` [Compound I-11, (R)-1-(2,6-Dichlorobenzyl)-N-(4,5-dihydrobenzo[6]tetrazolo[1,5-d][1,4]oxazepin-4-yl)-1H-1,2,4-triazole-3-carboxamide] are 10000 µM, 0.0178 µM and 0.0343 µM.
For the compound `CC(C)(O)C#Cc1ccc2c(c1)-n1ccnc1C(NC(=O)c1cc(Oc3ccccc3)ccn1)CC2` (racemic) [Compound I-56, (±)-N-(9-(3-Hydroxy-3-methylbut-1-yn-1-yl)-5,6-dihydro-477-benzo[f]imidazo[1,2-a]azepin-4-yl)-4-phenoxypicolinamide], the IC50 was determined as 5.09 µM in the assay on L929 cells, 0.0561 µM at RIPK1 and 0.0345 µM in the assay on U937 cells.
For `O=C(NC1CCc2ccccc2-n2cnnc21)c1cc(Oc2ccccc2)ccn1` (racemic) [Compound I-59, (±)-N-(5,6-Dihydro-4H-benzo[f][1,2,4]triazolo[4,3-a]azepin-4-yl)-4-phenoxypicolinamide], the IC50 in the assay on L929 cells was 10000 µM; on RIPK1, 0.118 µM; in the assay on U937 cells, 0.829 µM.
In the same order, the values of `O=C(N[C@H]1COc2ccccc2-n2c1noc2=O)c1cc(Oc2ccccc2)ccn1` [Compound I-53, N-((4R)-1-Oxo-4,5-dihydro-1H-benzo[6][1,2,4]oxadiazolo[4,3-d][1,4]oxazepin-4-yl)-4-phenoxypicolinamide] are 30.7 µM, 0.0204 µM and 0.0462 µM.
Take `O=C(N[C@H]1CCc2ccc(N3CC4(CCOCC4)C3)cc2-n2ccnc21)c1n[nH]c(Cc2ccccc2)n1` [Compound I-86, (S)—N-(9-(7-Oxa-2-azaspiro[3.5]nonan-2-yl)-5,6-dihydro-4H-benzo[f]imidazo[1,2-a]azepin-4-yl)-5-benzyl-1H-1,2,4-triazole-3-carboxamide]: the IC50 with L929 cells stood at 3.45 µM; at RIPK1, 0.067 µM; in the assay with U937 cells, 0.0119 µM.
On the same counts, the results for `O=C(NC1COc2ccccc2-n2cccc21)c1cc(Oc2ccccc2)ccn1` (racemic) [Compound I-54, (±)-N-(6,7-Dihydrobenzo[b]pyrrolo[1,2-d][1,4]oxazepin-7-yl)-4-phenoxypicolinamide] are 10000 µM, 0.582 µM and 1.25 µM.
